Test results from paper PMC12736570, “The Absorption, Distribution, Excretion, and In Vitro Hepatic Microsomal Metabolism of the Novel CDK Compound XMD12 in Sprague-Dawley Rats” (Pharmaceutics, 2025).
Several values for one entry are separate records, joined by “and”; a condition that tells them apart may be missing. Identical values can stand only once. Like-named read-outs stand apart in the source and are kept apart here. Blank lines part the entries; values can stand above or below the compound they belong to.

Columns and labels:
plasma protein = conditions: cited from earlier work
[1] = cited from earlier work
[2] = Tissue distribution study after gastric gavage; type: in vivo, Sprague-Dawley rats; conditions: gastric gavage 20 mg/kg
Method: Following a 12-h fasting period, 25 SD rats were randomly divided into 5 groups, each comprising 5 rats. These rats were administered the drug at a dosage of 20 mg/kg through gastric gavage. […] Blood was drawn from the abdominal aorta to ensure minimal residual blood within the rats, followed by euthanasia. A variety of tissues including the heart, liver, spleen, lungs, kidneys, stomach, small intestine, fat, muscles, and brain were then harvested. After weighing, all samples were stored in a freezer at −80 °C. The subsequent processing and analysis followed the described methods, aiming to determine the concentration of XMD12 in each tissue sample at different time intervals.

[3] = Urine and feces excretion study after gastric gavage; type: in vivo, Sprague-Dawley rats; conditions: gastric gavage 20 mg/kg
Method: Five male SD rats were housed individually in metabolic cages for adaptation for a day. During this period, urine and feces were collected as blank samples. The following day, the rats were orally administered XMD12 at a dose of 20 mg/kg by gastric gavage. Urine and feces samples were then collected at intervals of 0–4 h, 4–8 h, 8–12 h, 12–24 h, and 24–36 h post-administration. Measurements of volume and weight were recorded for each sample. Employing the outlined procedures, these samples underwent processing and analysis to determine the presence of XMD12 across different time spans within the collected urine and feces samples.

[4] = Metabolic stability in rat liver microsome incubation system; type: in vitro ADME; conditions: rat liver microsomes
Method: Rat liver microsomes (CYP450) were introduced into centrifuge tubes containing phosphate buffer. Different concentrations of the test compound were added to the experimental group, while an equal amount of buffer was added to the control group. Following a 10-min pre-incubation, NADPH was introduced to initiate the reaction, and the mixture was then incubated at 37 °C in a water bath for […]. The incubation system was composed of 10 μL of XMD12 substrate (0.5 μg/mL), 5 μL of rat liver microsomes (20 mg/mL), 20 μL of an NADPH generating system at a final concentration of 1 mM, and 465 μL of phosphate-buffered saline (pH 7.4). The NADPH generating system was prepared by mixing with 5 μL of a complementary Mix solution prior to use. This Mix solution contained MgCl2, EDTA, glucose-6-phosphate, glucose-6-phosphate dehydrogenase, and oxidized nicotinamide adenine dinucleotide phosphate (NADP^+). At intervals of 0, 5, 15, 30, 45, 60, 90, and 120 min, the reaction was halted by adding a cold acetonitrile solution containing the internal standard at a 1:2 ratio. This mixture underwent vigorous vortexing for 3 min before being centrifuged at 14,000 rpm for 10 min. The resulting supernatant was dried using nitrogen gas and subsequently reconstituted with 50% acetonitrile. After thorough vortexing for 2 min, the solution underwent a second centrifugation at 14,000 rpm for 10 min, and the supernatant was then injected into LC-MS/MS for analysis.

[5] = Plasma pharmacokinetics after single intravenous administration and gastric gavage; type: in vivo, Sprague-Dawley rats; conditions: for AUC0-t / AUC0-∞ / CL / Cmax / MRT0-t / Tmax / V / t1/2: n = 5
Method: Ten healthy SD rats were divided into two groups, each comprising five rats. Following a 12-h fasting period, the rats in the respective groups were administered XMD12 at dosages of 10 mg/kg via gastric gavage and 2 mg/kg via tail vein injection. The rats were anesthetized with isoflurane, and blood samples of approximately 150 uL were collected via the eye socket vein using capillaries. These samples were obtained prior to dosing (at 0 min) and at intervals of 0.083, 0.25, 0.5, 1, 1.5, 2.5, 4, 6, 8, 12 and 24 h post-dosing. The blood was then placed in centrifuge tubes pre-treated with heparin sodium, centrifuged at 3000 rpm for 10 min, and the resulting supernatant was stored in a refrigerator at −20 °C. The plasma samples underwent processing as per the outlined “Sample Preparation” methods and were analyzed using the specified procedures under “Instrument Conditions” to ascertain XMD12 concentration in the rat plasma at various time points. Utilizing DAS 3.2.8 (BioGuider Co., Shanghai, China), pharmacokinetic software facilitated data processing, computation of pertinent pharmacokinetic parameters, and the creation of blood concentration–time curves for the drug.

[6] = Stability of XMD12 QC samples in rat plasma and liver homogenate; type: in vitro ADME
Source text: Our analytical approach adheres to a comprehensive set of validation procedures in accordance with the recommendations outlined in the U.S. Food and Drug Administration’s Bioanalytical Method Validation Guidance (USFDA, 2018). These validation steps encompass a range of critical factors, including method specificity, linearity, sensitivity, carryover effect, accuracy, precision, matrix effect, recovery, dilution integrity, and stability. In assessing the method’s selectivity, we initiated the process by comparing chromatograms obtained from various sample sources. These sources included blank rat plasma, blank rat serum samples spiked with a mixture of standards, and rat plasma samples sourced from pharmacokinetic studies conducted on rats. This evaluation concurrently aided us in identifying and addressing any potential interferences that may occur within the acquisition window of XMD12 and the internal standard (IS). To evaluate linearity, a series of XMD12 concentrations was introduced into blank plasma, allowing us to establish a linear regression equation. The calibration curve (n = 5) was constructed by plotting the ratio of peak areas of XMD12 to IS (y-axis) against the nominal concentration ratio of XMD12 to IS (x-axis), followed by subsequent linear regression analysis. The lower limit of quantification (LLOQ) was defined as the lowest concentration point on the calibration curve that guarantees reliable quantification while maintaining accuracy within the range of 80–120% and precision below 20%. We conducted assessments of intra-day and inter-day precision and accuracy by performing six replicate tests on quality control (QC) samples at concentrations of 3, 120, and 1500 ng/mL over both a single day and a span of three days. Matrix effects and extraction recovery were evaluated through a post-extraction addition approach. Furthermore, we conducted a study on the stability of QC samples with high, medium, and low concentrations under four distinct conditions. […]

[7] = p.o. 10 mg∙kg^−1 (gastric gavage), SD rats

Compound: CC(=O)c1c(C)c2cnc(Nc3ccc(N4CCNCC4)cn3)nc2n(C2CCCC2)c1=O [Palbociclib]
plasma protein binding (plasma protein): 85.3%
Tmax [1]: 6 to 12 h
elimination half-life [1]: 24 to 34 h
volume of distribution [1]: ~2800 L
volume of distribution (Vd) ([1]; reported in humans): ~ 2800 L

Compound: CN(C)C(=O)c1cc2cnc(Nc3ccc(N4CCNCC4)cn3)nc2n1C1CCCC1 [Ribociclib]
oral bioavailability ([1]; human, in vivo): 65.8%
Tmax ([1]; human, in vivo): 1 to 5 h
elimination half-life ([1]; human, in vivo): 30 to 55 h
fecal excretion ([1]; human, in vivo): 69.1%
volume of distribution (Vd) ([1]; human, in vivo): 1090 L

time to peak drug concentration in gastrointestinal tissues (stomach and intestines) [2]: 0.5 to 1 h
brain concentration ([2]; 1 h): 930.17 ± 762.76 ng/g
liver peak concentration ([2]; 1 h, 20 mg/kg): 24,768 ± 2436.62 ng/g and 24,768 ng/g
liver concentration ([2]; 5 h): 2241.9 ± 1193.07 ng/g
liver concentration as percent of the peak value ([2]; 5 h post-dosing): 9%
concentration in all tissues as percent of peak levels ([2]; by 5 h): below 10%
interval of rapid fecal elimination [3]: 12 to 24 h
peak urinary elimination window [3]: 12 to 24 h
cumulative fecal excretion (of the administered dose) ([3]; 0–36 h): 62.36% ± 19.97%
cumulative urinary excretion rate ([3]; 0–36 h, 20 mg/kg): 0.0068% and 0.0068% ± 0.0028%
parent compound remaining ([4]; 5 min incubation, 37 °C, NADPH): 68.8%
parent compound remaining ([4]; 45 min incubation): 20%
metabolic rate ([4]; 120 min): 87%
parent compound remaining ([4]; 120 min incubation): 13%
intrinsic clearance (CLint) ([4]; CLint = k × (V/P), V 500 μL, P 0.1 mg): 98.5 μL/min/mg protein
degradation rate constant (k) ([4]; regression of ln remaining percentage vs incubation time): 0.0197 min⁻¹
plasma concentration ([5]; gastric gavage 10 mg/kg, within 8 h): approaching the LLOQ
plasma concentration ([5]; i.v. 2 mg/kg, within 30 min): 59.88 ng/mL
AUC0-t ([5]; i.v. 2 mg∙kg^−1, SD rats): 357.21 ± 66.60 ng·h/mL
AUC0-∞ ([5]; i.v. 2 mg∙kg^−1, SD rats): 360.03 ± 66.00 ng·h/mL
CL ([5]; i.v. 2 mg∙kg^−1, SD rats): 94.8 ± 15.8 mL/min/kg
Cmax ([5]; i.v. 2 mg∙kg^−1, SD rats): 827.00 ± 191.30 ng/mL
MRT0-t ([5]; i.v. 2 mg∙kg^−1, SD rats): 0.74 ± 0.08 h
Tmax ([5]; i.v. 2 mg∙kg^−1, SD rats): 0.083 h
V ([5]; i.v. 2 mg∙kg^−1, SD rats): 12.29 ± 3.98 L/kg
t1/2 ([5]; i.v. 2 mg∙kg^−1, SD rats): 1.47 ± 0.29 h
peak concentration after gastric gavage relative to intravenous levels ([5]; p.o. 10 mg/kg vs i.v. 2 mg/kg): below 5%
AUC0-t [5, 7]: 117.78 ± 28.97 ng·h/mL
AUC0-∞ [5, 7]: 120.06 ± 30.19 ng·h/mL
CL [5, 7]: 1444 ± 278.7 mL/min/kg
Cmax [5, 7]: 38.26 ± 10.90 ng/mL
MRT0-t [5, 7]: 2.475 ± 0.344 h
Tmax [5, 7]: 1.300 ± 0.758 h
V [5, 7]: 150.59 ± 34.37 L/kg
t1/2 [5, 7]: 1.21 ± 0.16 h
F (bioavailability) ([5]; p.o. 10 mg∙kg^−1 vs i.v. 2 mg∙kg^−1, SD rats): 6.67%
plasma half-life ([5]; rat plasma, route not stated): 1 h
stability, Accuracy ([6]; liver, nominal 30.0 ng∙mL^−1, 6 h at room temperature): 100.93%
stability, Accuracy ([6]; liver, nominal 30.0 ng∙mL^−1, 15 d, −80 °C): 97.53%
stability, Accuracy ([6]; liver, nominal 30.0 ng∙mL^−1, autosample at ambient temperature for 6 h): 100.80%
stability, Accuracy ([6]; liver, nominal 30.0 ng∙mL^−1, freeze–thaw (3 circles)): 100.47%
stability, Accuracy ([6]; liver, nominal 800.0 ng∙mL^−1, 6 h at room temperature): 101.93%
stability, Accuracy ([6]; liver, nominal 800.0 ng∙mL^−1, 15 d, −80 °C): 99.40%
stability, Accuracy ([6]; liver, nominal 800.0 ng∙mL^−1, freeze–thaw (3 circles)): 99.78%
stability, Accuracy ([6]; liver, nominal 1600.0 ng∙mL^−1, 6 h at room temperature): 101.56%
stability, Accuracy ([6]; liver, nominal 1600.0 ng∙mL^−1, 15 d, −80 °C): 101.63%
stability, Accuracy ([6]; liver, nominal 1600.0 ng∙mL^−1, autosample at ambient temperature for 6 h): 100.94%
stability, Accuracy ([6]; liver, nominal 1600.0 ng∙mL^−1, freeze–thaw (3 circles)): 97.75%
stability, Accuracy ([6]; plasma, nominal 5 ng∙mL^−1, 6 h at room temperature): 105.58%
stability, Accuracy ([6]; plasma, nominal 5 ng∙mL^−1, 15 d, −80 °C): 94.20%
stability, Accuracy ([6]; plasma, nominal 5 ng∙mL^−1, autosample at ambient temperature for 6 h): 92.16%
stability, Accuracy ([6]; plasma, nominal 5 ng∙mL^−1, freeze–thaw (3 circles)): 97.10%
stability, Accuracy ([6]; plasma, nominal 90 ng∙mL^−1, 6 h at room temperature): 108.60%
stability, Accuracy ([6]; plasma, nominal 90 ng∙mL^−1, 15 d, −80 °C): 93.76%
stability, Accuracy ([6]; plasma, nominal 90 ng∙mL^−1, autosample at ambient temperature for 6 h): 92.44%
stability, Accuracy ([6]; plasma, nominal 90 ng∙mL^−1, freeze–thaw (3 circles)): 107.22%
stability, Accuracy ([6]; plasma, nominal 800 ng∙mL^−1, 6 h at room temperature): 110.80%
stability, Accuracy ([6]; plasma, nominal 800 ng∙mL^−1, 15 d, −80 °C): 102.22%
stability, Accuracy ([6]; plasma, nominal 800 ng∙mL^−1, autosample at ambient temperature for 6 h): 90.02%
stability, Accuracy ([6]; plasma, nominal 800 ng∙mL^−1, freeze–thaw (3 circles)): 106.80%
Compound: COc1cc(F)ccc1-c1nc(Nc2cccc(N3CCOCC3)c2)ncc1F [XMD12]
plasma concentration ([5]; i.v. 2 mg/kg, by 8 h): below the lower limit of quantification (LLOQ)

Compound: CCN1CCN(Cc2ccc(Nc3ncc(F)c(-c4cc(F)c5nc(C)n(C(C)C)c5c4)n3)nc2)CC1 [Abemaciclib]
plasma protein binding (plasma protein; plasma): 96.3%
elimination half-life [1]: 17 to 38 h
oral bioavailability ([1]; human, in vivo): 45%
Tmax ([1]; human, in vivo): under 8 h
fecal excretion ([1]; reported in humans): 81%
